Here are results for 3 compounds from patent publication EP0878194A1, “REMEDIES OR PREVENTIVES FOR AIDS” (SANKYO COMPANY LIMITED, priority 1996, dated 1997).

The test system of assay [1] is HIV-1IIIB strain. Put plainly: In vitro combined test: survival of HIV-1IIIB-infected MT4 cells (MTT), isobologram and combination index. It is filed as cell-based.
The test system of assay [2] is HIV-1IIIB strain. Described as above. It is filed as cell-based. Particulars: read-out: IC50 of Preparation example 117. Here is the method:
Human T cell transformed cell line MT4 cells were cultured in RPMI 1640 medium containing 10% fetal bovine serum. HIV-1IIIB strain was obtained from HIV-1IIIB chronically infected Molt-4 cells as a supernatant fluid and used as the source of infectious viruses. The 50% tissue culture infectious dose (TCID50) of this fluid was determined by the endpoint titration methods.
The compound of Preparation example 117 was added in a serial dilution in the vertical direction to six 96-well microtiter plates. As a result of adding ZDV (Sigma) in a serial dilution in the horizontal direction, diluted solutions containing mixtures of various concentrations were prepared in 96-well microtiter plates (n=4).
MT4 cells were exposed to HIV-1IIIB fluid at a multiplicity of infection (m.o.i) 0.001 TCID50/ml at 37°C for 1 hour, then the cells were washed twice with PBS, and aliquots (5 x 10^4 cells/well) were placed in the plates containing various concentration of agent prepared as described above. After incubation for 6 days, the survival rate of infected MT4 cells was determined by the cell survival test using MTT (Sigma). Incidentally, in this test, the absorbance at O.D. 540 nm was measured by a plate reader, and the survival rate was determined by drawing a cell survival curve.
Analysis was performed according to the method of Barenbaum using an isobologram and combination index (CI) (Barenbaum, M.C., Pharmacol. Rev., 41, 93-141, 1989). In this case, the CI value was calculated by the general isobole equation. Determination of synergy, addition and […] was performed by isobologram curve patterns and/or statistical comparison of experimental CI values with CI values in typical additive effects (CI values when identical compounds are used in combination (0.85±0.11, Taylor, D.L. et al., Antiviral Chem. Chemother., 6, 143-152, 1995)).

Read-outs that look alike come from different tables or passages of the source.

On to `Nc1ccn([C@@H]2CS[C@H](CO)O2)c(=O)n1` [3TC, 4-amino-1-(2-hydroxymethyl-1,3-oxathioran-5-yl)-(1H)-pyrimidin-2-one, reference compound], for which the IC50 in the assay with HIV-1IIIB strain [1] (Human immunodeficiency virus 1, MT4, alone (Preparation example 117 0), Table 33 experiment, read-out: IC50 of 3TC) came out at 0.6 µg/mL; in the assay on HIV-1IIIB strain [1] (Human immunodeficiency virus 1, MT4, with Preparation example 117 0.38 ng/ml, read-out: IC50 of 3TC), 0.5 µg/mL; with HIV-1IIIB strain [1] (Human immunodeficiency virus 1, MT4, with Preparation example 117 0.78 ng/ml, read-out: IC50 of 3TC), 0.52 µg/mL; in the assay with HIV-1IIIB strain [1] (Human immunodeficiency virus 1, MT4, with Preparation example 117 0.96 ng/ml, read-out: IC50 of 3TC), 0.5 µg/mL; in the assay with HIV-1IIIB strain [1] (Human immunodeficiency virus 1, MT4, with Preparation example 117 1.56 ng/ml, read-out: IC50 of 3TC), 0.43 µg/mL; with HIV-1IIIB strain [1] (Human immunodeficiency virus 1, MT4, with Preparation example 117 3.13 ng/ml, read-out: IC50 of 3TC), 0.34 µg/mL. The IC50 with HIV-1IIIB strain [1] (Human immunodeficiency virus 1, MT4, with Preparation example 117 4.57 ng/ml, read-out: IC50 of 3TC) was determined as 0.25 µg/mL; in the assay on HIV-1IIIB strain [1] (Human immunodeficiency virus 1, MT4, with Preparation example 117 6.25 ng/ml, read-out: IC50 of 3TC), 0.19 µg/mL; in the assay with HIV-1IIIB strain [1] (Human immunodeficiency virus 1, MT4, with Preparation example 117 8.0 ng/ml, read-out: IC50 of 3TC) it was 0.125 µg/mL; with HIV-1IIIB strain [1] (Human immunodeficiency virus 1, MT4, with Preparation example 117 12.4 ng/ml, read-out: IC50 of 3TC) it was 0.063 µg/mL; in the assay with HIV-1IIIB strain [1] (Human immunodeficiency virus 1, MT4, with Preparation example 117 12.7 ng/ml, read-out: IC50 of 3TC), 0.0313 µg/mL; in the assay with HIV-1IIIB strain [1] (Human immunodeficiency virus 1, MT4, with Preparation example 117 13.0 ng/ml, read-out: IC50 of 3TC), 0.0156 µg/mL.
As to `OC[C@@H]1CC[C@H](n2cnc3c(O)ncnc32)O1` [DDI, 2',3'-dideoxyinosine, reference compound], the IC50 in the assay with HIV-1IIIB strain [1] (Human immunodeficiency virus 1, MT4, alone (Preparation example 117 0), Table 34 experiment, read-out: IC50 of DDI) was found to be 5400 nM; in the assay with HIV-1IIIB strain [1] (Human immunodeficiency virus 1, MT4, with Preparation example 117 0.39 ng/ml, read-out: IC50 of DDI), 4270 nM; in the assay on HIV-1IIIB strain [1] (Human immunodeficiency virus 1, MT4, with Preparation example 117 0.78 ng/ml, read-out: IC50 of DDI) it was 4380 nM; in the assay with HIV-1IIIB strain [1] (Human immunodeficiency virus 1, MT4, with Preparation example 117 1.56 ng/ml, read-out: IC50 of DDI), 3650 nM; in the assay with HIV-1IIIB strain [1] (Human immunodeficiency virus 1, MT4, with Preparation example 117 3.13 ng/ml, read-out: IC50 of DDI), 2800 nM; in the assay on HIV-1IIIB strain [1] (Human immunodeficiency virus 1, MT4, with Preparation example 117 3.85 ng/ml, read-out: IC50 of DDI), 2500 nM. Besides, the IC50 with HIV-1IIIB strain [1] (Human immunodeficiency virus 1, MT4, with Preparation example 117 6.25 ng/ml, read-out: IC50 of DDI) was found to be 1670 nM; with HIV-1IIIB strain [1] (Human immunodeficiency virus 1, MT4, with Preparation example 117 7.70 ng/ml, read-out: IC50 of DDI) it was 1250 nM; in the assay with HIV-1IIIB strain [1] (Human immunodeficiency virus 1, MT4, with Preparation example 117 10.0 ng/ml, read-out: IC50 of DDI), 630 nM; in the assay with HIV-1IIIB strain [1] (Human immunodeficiency virus 1, MT4, with Preparation example 117 10.5 ng/ml, read-out: IC50 of DDI), 313 nM; in the assay with HIV-1IIIB strain [1] (Human immunodeficiency virus 1, MT4, with Preparation example 117 11.0 ng/ml, read-out: IC50 of DDI), 156 nM.
Consider `Cn1cc(C(=O)O)c(=O)c2cc(F)c(N3CCN(c4ncccn4)CC3)c(C(F)(F)F)c21` [Preparation example 117, 6-fluoro-8-trifluoromethyl-1,4-dihydro-4-oxo-1-methyl-7-[4-(2-pyrimidinyl)piperazin-1-yl]quinoline-3-carboxylic acid], for which the IC50 with HIV-1IIIB strain [1] (Human immunodeficiency virus 1, MT4, alone (3TC 0), Table 33 experiment, read-out: IC50 of Preparation example 117) was determined as 0.016 µg/mL; in the assay with HIV-1IIIB strain [1] (Human immunodeficiency virus 1, MT4, alone (DDI 0), Table 34 experiment, read-out: IC50 of Preparation example 117), 0.014 µg/mL; in the assay with HIV-1IIIB strain [1] (Human immunodeficiency virus 1, MT4, alone (ZDV 0), Table 32 experiment, read-out: IC50 of Preparation example 117) it was 0.039 µg/mL; with HIV-1IIIB strain [1] (Human immunodeficiency virus 1, MT4, with 3TC 0.0156 µg/ml, read-out: IC50 of Preparation example 117), 0.013 µg/mL; with HIV-1IIIB strain [1] (Human immunodeficiency virus 1, MT4, with 3TC 0.0313 µg/ml, read-out: IC50 of Preparation example 117), 0.0127 µg/mL; in the assay with HIV-1IIIB strain [1] (Human immunodeficiency virus 1, MT4, with 3TC 0.063 µg/ml, read-out: IC50 of Preparation example 117) it was 0.0124 µg/mL. Moreover, the IC50 came to 0.008 µg/mL with HIV-1IIIB strain [1] (Human immunodeficiency virus 1, MT4, with 3TC 0.125 µg/ml, read-out: IC50 of Preparation example 117); 0.00625 µg/mL in the assay with HIV-1IIIB strain [1] (Human immunodeficiency virus 1, MT4, with 3TC 0.19 µg/ml, read-out: IC50 of Preparation example 117); 0.00457 µg/mL in the assay with HIV-1IIIB strain [1] (Human immunodeficiency virus 1, MT4, with 3TC 0.25 µg/ml, read-out: IC50 of Preparation example 117); 0.00313 µg/mL in the assay on HIV-1IIIB strain [1] (Human immunodeficiency virus 1, MT4, with 3TC 0.34 µg/ml, read-out: IC50 of Preparation example 117); 0.00156 µg/mL with HIV-1IIIB strain [1] (Human immunodeficiency virus 1, MT4, with 3TC 0.43 µg/ml, read-out: IC50 of Preparation example 117); 0.00096 µg/mL with HIV-1IIIB strain [1] (Human immunodeficiency virus 1, MT4, with 3TC 0.50 µg/ml (Table 33, first line with 0.50), read-out: IC50 of Preparation example 117). For the same compound, the IC50 amounted to 0.00038 µg/mL in the assay with HIV-1IIIB strain [1] (Human immunodeficiency virus 1, MT4, with 3TC 0.50 µg/ml (Table 33, second line with 0.50), read-out: IC50 of Preparation example 117); 0.00078 µg/mL in the assay with HIV-1IIIB strain [1] (Human immunodeficiency virus 1, MT4, with 3TC 0.52 µg/ml, read-out: IC50 of Preparation example 117); 0.011 µg/mL in the assay with HIV-1IIIB strain [1] (Human immunodeficiency virus 1, MT4, with DDI 0.156 µM, read-out: IC50 of Preparation example 117); 0.0105 µg/mL in the assay on HIV-1IIIB strain [1] (Human immunodeficiency virus 1, MT4, with DDI 0.313 µM, read-out: IC50 of Preparation example 117); 0.01 µg/mL with HIV-1IIIB strain [1] (Human immunodeficiency virus 1, MT4, with DDI 0.63 µM, read-out: IC50 of Preparation example 117); 0.0077 µg/mL with HIV-1IIIB strain [1] (Human immunodeficiency virus 1, MT4, with DDI 1.25 µM, read-out: IC50 of Preparation example 117). In addition, the IC50 in the assay with HIV-1IIIB strain [1] (Human immunodeficiency virus 1, MT4, with DDI 1.67 µM, read-out: IC50 of Preparation example 117) came out at 0.00625 µg/mL; in the assay with HIV-1IIIB strain [1] (Human immunodeficiency virus 1, MT4, with DDI 2.50 µM, read-out: IC50 of Preparation example 117), 0.00385 µg/mL; in the assay with HIV-1IIIB strain [1] (Human immunodeficiency virus 1, MT4, with DDI 2.80 µM, read-out: IC50 of Preparation example 117) it was 0.00313 µg/mL; with HIV-1IIIB strain [1] (Human immunodeficiency virus 1, MT4, with DDI 3.65 µM, read-out: IC50 of Preparation example 117), 0.00156 µg/mL; in the assay on HIV-1IIIB strain [1] (Human immunodeficiency virus 1, MT4, with DDI 4.27 µM, read-out: IC50 of Preparation example 117) it was 0.00039 µg/mL; in the assay with HIV-1IIIB strain [1] (Human immunodeficiency virus 1, MT4, with DDI 4.38 µM, read-out: IC50 of Preparation example 117) it was 0.00078 µg/mL. The IC50 with HIV-1IIIB strain [1] (Human immunodeficiency virus 1, MT4, with ZDV 0.78 ng/ml, read-out: IC50 of Preparation example 117) amounted to 0.028 µg/mL; in the assay with HIV-1IIIB strain [1] (Human immunodeficiency virus 1, MT4, with ZDV 1.20 ng/ml, read-out: IC50 of Preparation example 117), 0.025 µg/mL; with HIV-1IIIB strain [1] (Human immunodeficiency virus 1, MT4, with ZDV 3.13 ng/ml, read-out: IC50 of Preparation example 117), 0.0162 µg/mL; in the assay on HIV-1IIIB strain [1] (Human immunodeficiency virus 1, MT4, with ZDV 5.60 ng/ml, read-out: IC50 of Preparation example 117) it was 0.0125 µg/mL; with HIV-1IIIB strain [1] (Human immunodeficiency virus 1, MT4, with ZDV 12.5 ng/ml, read-out: IC50 of Preparation example 117) it was 0.0053 µg/mL; in the assay with HIV-1IIIB strain [1] (Human immunodeficiency virus 1, MT4, with ZDV 14.5 ng/ml, read-out: IC50 of Preparation example 117), 0.00156 µg/mL. Further, the IC50 with HIV-1IIIB strain [2] (Human immunodeficiency virus 1, MT4, with ZDV 1.56 ng/ml) amounted to 0.0241 µg/mL; in the assay with HIV-1IIIB strain [2] (Human immunodeficiency virus 1, MT4, with ZDV 6.25 ng/ml) it was 0.0111 µg/mL; in the assay with HIV-1IIIB strain [2] (Human immunodeficiency virus 1, MT4, with ZDV 11.6 ng/ml) it was 0.00625 µg/mL; in the assay with HIV-1IIIB strain [2] (Human immunodeficiency virus 1, MT4, with ZDV 13.9 ng/ml) it was 0.00313 µg/mL.
